Laboratory results reported in PubChem BioAssay (NCI).
Several values for one entry are separate records, joined by “and”; a condition that tells them apart may be missing. Identical values can stand only once.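 Growth conditions: 96-well plates. Treatment: test compound, 48 hours, 5 concentrations. Analysis: linear interpolation between bracketing concentrations; unreached endpoints set to highest concentration. GI50 marks 50% less growth. TGI is the concentration that stops growth completely.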

Experiments:
Test in all cases: NCI tumour cell line growth inhibition, 48 h
[1] = test system: NCI/ADR-RES ovarian
[2] = test system: P388 leukemia
[3] = test system: P388/ADR leukemia
[4] = test system: SN12K1 renal
[5] = test system: DMS 114 small cell lung
[6] = test system: DMS 273 small cell lung
[7] = test system: DLD-1 colon
[8] = test system: RXF-631 renal
[9] = test system: MDA-N
[10] = test system: MDA-MB-435
[11] = test system: HS 578T breast

O=CN/C=C/c1cc(O)ccc1O
TGI [1]: 42.1 µM
TGI [2]: 5.2 µM
TGI [3]: 4.14 µM
TGI [4]: 32.4 µM
TGI [5]: 31.8 µM
TGI [6]: > 100 µM
TGI [7]: 34.4 µM

CN(C)CC[N+]1=Nc2cccc3cccc(c23)N1
TGI [5]: > 100 µM
TGI [6]: 35.6 µM
TGI [8]: > 100 µM
TGI [7]: > 59.8 µM

C/C(CC(=O)CCC(=O)Nc1cccc(C(F)(F)F)c1)=N\NC(=O)NN
TGI [5]: > 100 µM
TGI [6]: > 100 µM
TGI [8]: > 100 µM
TGI [7]: > 100 µM

O=C(/C=C/c1ccccc1)NC1C=Nc2ccc(Cl)cc2NC1=O (stereo unspecified)
TGI [5]: 30.4 µM
TGI [6]: 54.6 µM
TGI [8]: > 100 µM
TGI [7]: > 100 µM

COC(=O)CC1CCN(C#N)CC1CC[N+](=O)[O-] (stereo unspecified)
TGI [5]: > 100 µM
TGI [6]: > 100 µM
TGI [8]: > 100 µM
TGI [7]: > 100 µM

CCCCC(=O)OCC(=O)[C@]1(O)Cc2c(O)c3c(c(O)c2[C@@H](OC2CC(NC(=O)C(F)(F)F)C(O)C(C)O2)C1)C(=O)c1c(OC)cccc1C3=O (stereo partly specified)
TGI [9]: 5.02 µM
TGI [5]: 1.66 µM
TGI [6]: 3.39 µM
TGI [10]: > 100 µM
TGI [8]: 6.44 µM
TGI [11]: 5.05 µM
TGI [7]: 13.2 µM

Cc1cc(C)nc(NS(=O)(=O)c2ccc(NC(=O)c3ccc(Cl)c4c(Nc5ccc(S(=O)(=O)Nc6nc(C)cc(C)n6)cc5)c5ccccc5nc34)cc2)n1
TGI [5]: 8.54 µM
TGI [6]: > 100 µM
TGI [8]: > 100 µM
TGI [7]: 84.2 µM

COc1ccccc1C12OC(=O)C1(C)Oc1ccccc1C2=O (stereo unspecified)
TGI [5]: > 100 µM
TGI [6]: 86.4 µM
TGI [8]: > 100 µM
TGI [7]: > 100 µM

O=C(N/C(=C\c1ccc(/C=C(\NC(=O)c2ccccc2)c2nc3cc([N+](=O)[O-])ccc3[nH]2)cc1)c1nc2cc([N+](=O)[O-])ccc2[nH]1)c1ccccc1
TGI [5]: > 100 µM
TGI [6]: > 100 µM
TGI [8]: > 100 µM
TGI [7]: > 100 µM

COC(=O)[C@@H]1[C@H](O)[C@H](C)[C@H](O)[C@@](C)(O)/C=C\C=C(C)C(=O)Nc2c(C)c(OC(C)=O)c3c(c2O)C(=O)C(C)=C2OCOC(=C23)C(C)=C[C@@](C)(O)[C@H](O)[C@@H](C)[C@H]1OC(C)=O
TGI [5]: > 100 µM and 21.9 µM
TGI [6]: > 100 µM
GI50 [8]: > 100 µM and 39.8 µM and 36.4 µM
TGI [8]: > 100 µM and 66.9 µM
GI50 [7]: 40.7 µM
TGI [7]: > 100 µM and 66.9 µM

COC1(OC)CCC2C1C1CCC(OC)(OC)C21 (stereo unspecified)
TGI [5]: > 50 µM
TGI [6]: > 50 µM
TGI [8]: > 50 µM
TGI [7]: > 50 µM

COC1CCC2C(NS(=O)(=O)c3ccc(C)cc3)CCCC2O1 (stereo unspecified) (tested in a mixture with another compound)
TGI [5]: 27.9 µM
TGI [6]: 22.8 µM
TGI [8]: > 34.5 µM
TGI [7]: > 34.5 µM
